Literature values as cited in patent publication US9913492B1, “Yolatile liquid inhaler and method of manufacture” (priority 2010, dated 2018).

Experiments:
[1] = tested on: adult human beings
[2] = at 25 degrees C.
[3] = tested on: mice
[4] = tested on: rats

Row | Compound | lethal dose ([1]; comparison with nicotine) | vapor pressure [2] | LD50 [3] | LD50 [4] | lethal dosage ([1]; adult human beings)
1 | COC(=O)[C@H]1[C@@H](OC(=O)c2ccccc2)C[C@@H]2CC[C@H]1N2C [cocaine] | 1000 mg | – | – | – | –
2 | CN1CCCC1c1cccnc1 (centres unmarked) [nicotine] | – | 0.53 MBR | 3 mg/kg | 50 mg/kg | 40 to 60 mg
